This is an account of results in ChEMBL document CHEMBL1201862, “PubChem BioAssay data set” (2004).

Activity calls are given as the source filed them.

What is called EC50 is the concentration at which the effect is half-maximal. The term AC50 denotes the concentration giving half of the maximal activity seen. The IC50 is the point on the concentration scale where inhibition reaches its midpoint.

Assay [1] in a line: Luminescence Cell-Based Dose Confirmation HTS to Identify Activators of 5'UTR Stem-Loop Driven Alpha-Synuclein mRNA Translation in H4 Neuroglioblastoma Cells. [Related pubchem assays: 1829 (Project Summary), 1814 (Primary HTS)]. Type of assay: functional.
The nature of assay [2]: Luminescence Cell-Based Dose Response HTS to Identify Activators of Luciferase Translation or Activity in H4 […] Cells. [Related pubchem assays: 1829 (Project Summary), 1814 (Primary HTS)]. Type of assay: functional.
In assay [3] the test system is BJ. Put plainly: BJ-TERT fibroblast viability loss – cell-based, RAS-independent, luminescence, dose response (AID 1933). Type of assay: functional. Conditions: Homo sapiens.
Another assay relates to H4. Put plainly: Luminescence Cell-Based Dose Response HTS to Identify Activators of 5'UTR Stem-Loop Driven Prion Protein mRNA Translation in H4 Neuroglioblastoma Cells. [Related pubchem assays: 1829 (Project Summary), 1814 (Primary HTS)]. Particulars: Homo sapiens. Type of assay: functional.
Assay [4] deals with BJ. Put plainly: cells. Type of assay: functional, cell-based. Conditions: Homo sapiens.
The test system of assay [5] is BJ. Put plainly: BJ-TERT-LT-ST fibroblast viability loss – cell-based, RAS-independent, luminescence, dose response (AID 1935).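 Note: BJ fibroblasts immortalized with TERT plus LT and ST oncogenes.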 Type of assay: functional. Particulars: Homo sapiens.
Assay [6] in a line: DRD fibroblast viability loss – cell-based, non-viral oncogenic, luminescence, dose response (AID 1934). Type of assay: functional. Particulars: Homo sapiens.
Assay [7] is described as follows: Luminescence Cell-Based Dose Retest to Confirm Inhibitors of Cancer Stem Cells. [Related pubchem assays (depositor defined):AID2717, AID2721]. Type of assay: functional. Conditions: Homo sapiens.
Assay [8] addresses Glutathione S-transferase omega-1 (Homo sapiens, UniProt P78417). Put plainly: IC50 of human GSTO1 inhibition by gel ABPP – biochemical, SE-Rh probe, in-gel fluorescence, powder samples, late-stage follow-up (AID 463081). Type of assay: functional.
For assay [9], the target named is T1, Replicative DNA helicase DnaB (Mycobacterium tuberculosis, UniProt P9WMR3).
T1 sequence (P9WMR3 whole entry): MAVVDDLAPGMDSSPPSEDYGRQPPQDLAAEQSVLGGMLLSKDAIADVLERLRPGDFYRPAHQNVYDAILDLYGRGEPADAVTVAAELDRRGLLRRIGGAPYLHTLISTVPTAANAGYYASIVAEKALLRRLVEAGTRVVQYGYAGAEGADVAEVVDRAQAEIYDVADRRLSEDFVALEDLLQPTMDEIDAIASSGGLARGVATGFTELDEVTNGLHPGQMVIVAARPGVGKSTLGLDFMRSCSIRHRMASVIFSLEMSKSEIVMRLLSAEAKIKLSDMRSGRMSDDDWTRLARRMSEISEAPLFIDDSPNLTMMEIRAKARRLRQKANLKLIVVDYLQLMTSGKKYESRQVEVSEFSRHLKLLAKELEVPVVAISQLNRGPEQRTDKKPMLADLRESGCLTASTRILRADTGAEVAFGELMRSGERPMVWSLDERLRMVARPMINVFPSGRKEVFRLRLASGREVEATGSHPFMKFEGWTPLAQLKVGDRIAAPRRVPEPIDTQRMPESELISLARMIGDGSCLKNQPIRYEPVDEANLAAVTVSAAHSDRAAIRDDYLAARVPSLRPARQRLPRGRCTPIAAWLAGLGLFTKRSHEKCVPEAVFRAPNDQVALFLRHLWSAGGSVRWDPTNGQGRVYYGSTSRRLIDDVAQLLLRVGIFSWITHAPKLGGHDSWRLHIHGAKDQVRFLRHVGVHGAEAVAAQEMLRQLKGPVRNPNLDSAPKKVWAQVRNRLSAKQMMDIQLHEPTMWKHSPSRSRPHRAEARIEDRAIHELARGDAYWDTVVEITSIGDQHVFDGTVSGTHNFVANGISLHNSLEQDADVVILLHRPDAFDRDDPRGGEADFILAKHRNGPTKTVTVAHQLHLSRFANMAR
Put plainly: DnaB intein splicing inhibitors, dose response, biochemical, cell-free fluorescence (AID 449749). Type of assay: functional.

In assay [10] the test system is BJ. Nature of the assay: growth inhibition of engineered Ras-driven BJ cells – cell-based, alamar blue fluorescence, cherrypicked samples, dose response (AID 2631).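 Note: confirmatory dose-response assay in RAS-dependent BJ fibroblasts engineered with TERT, LT and ST, with cytotoxicity read by fluorescence.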 Type of assay: functional. Conditions: Homo sapiens.
In a further assay the target is T2, Protein RecA (Mycobacterium tuberculosis, UniProt P9WHJ3).
T2 sequence (P9WHJ3 whole entry): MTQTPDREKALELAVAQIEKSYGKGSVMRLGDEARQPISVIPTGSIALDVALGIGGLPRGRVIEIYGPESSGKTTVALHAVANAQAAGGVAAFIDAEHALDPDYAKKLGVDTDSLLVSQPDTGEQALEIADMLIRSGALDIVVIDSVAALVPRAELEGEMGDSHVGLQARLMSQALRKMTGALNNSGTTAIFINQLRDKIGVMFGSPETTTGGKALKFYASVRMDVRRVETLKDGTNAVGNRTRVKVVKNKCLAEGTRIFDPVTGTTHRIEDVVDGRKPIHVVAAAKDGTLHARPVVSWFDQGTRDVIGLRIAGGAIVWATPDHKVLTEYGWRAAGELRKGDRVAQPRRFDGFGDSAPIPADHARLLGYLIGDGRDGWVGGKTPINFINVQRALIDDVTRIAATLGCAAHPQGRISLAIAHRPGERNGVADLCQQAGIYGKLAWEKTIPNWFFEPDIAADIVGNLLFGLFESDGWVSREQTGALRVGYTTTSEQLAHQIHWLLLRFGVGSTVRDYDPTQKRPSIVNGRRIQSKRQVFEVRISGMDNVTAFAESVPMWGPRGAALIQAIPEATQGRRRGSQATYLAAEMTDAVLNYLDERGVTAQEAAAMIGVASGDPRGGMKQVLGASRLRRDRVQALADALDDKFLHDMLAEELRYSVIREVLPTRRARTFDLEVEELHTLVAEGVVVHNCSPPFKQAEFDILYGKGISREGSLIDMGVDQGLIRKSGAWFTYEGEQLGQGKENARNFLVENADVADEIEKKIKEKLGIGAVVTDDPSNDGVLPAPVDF
Nature of the assay: Fluorescence Cell-Free Homogeneous Dose Retest to Identify Inhibitors of RecA-Intein Splicing Activity. [Related pubchem assays (depositor defined):AID2097, AID2223, AID489010, AID492950]. Type of assay: functional.

The target in another assay is Paired box protein Pax-8 (Homo sapiens, UniProt Q06710). Nature of the assay: PAX8 transcriptional activity inhibition in RMG-I – RMG-I cells, luciferase, cherry-pick, dose response (AID 687027).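 Note: luciferase reporter driven by Pax8 target thyroperoxidase promoter measured by SteadyGlo luminescence.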 Type of assay: functional, cell-based.
A short description of assay [11]: general cell-killing toxicity readout – plate reader, dry powder samples, cytotoxicity control for PAX8 inhibitor project, dose response (AID 743021). Type of assay: functional, cell-based.
Assay [12] concerns the target DNA dC->dU-editing enzyme APOBEC-3A (Homo sapiens, UniProt P31941). Put plainly: A3A deaminase inhibition for selectivity – biochemical, dose response (AID 504722). Type of assay: functional.
Assay [13] has as its target DNA dC->dU-editing enzyme APOBEC-3G (Homo sapiens, UniProt Q9HC16). Nature of the assay: Dose Response confirmation of small molecule APOBEC3G DNA Deaminase Inhibitors via a fluorescence-based single-stranded DNA deaminase assay. [Related pubchem assays (depositor defined):AID493012, AID493028]. Type of assay: functional.
Another assay has as its target T3, Coagulation factor XII (Homo sapiens, UniProt P00748).
T3 sequence (P00748 whole entry): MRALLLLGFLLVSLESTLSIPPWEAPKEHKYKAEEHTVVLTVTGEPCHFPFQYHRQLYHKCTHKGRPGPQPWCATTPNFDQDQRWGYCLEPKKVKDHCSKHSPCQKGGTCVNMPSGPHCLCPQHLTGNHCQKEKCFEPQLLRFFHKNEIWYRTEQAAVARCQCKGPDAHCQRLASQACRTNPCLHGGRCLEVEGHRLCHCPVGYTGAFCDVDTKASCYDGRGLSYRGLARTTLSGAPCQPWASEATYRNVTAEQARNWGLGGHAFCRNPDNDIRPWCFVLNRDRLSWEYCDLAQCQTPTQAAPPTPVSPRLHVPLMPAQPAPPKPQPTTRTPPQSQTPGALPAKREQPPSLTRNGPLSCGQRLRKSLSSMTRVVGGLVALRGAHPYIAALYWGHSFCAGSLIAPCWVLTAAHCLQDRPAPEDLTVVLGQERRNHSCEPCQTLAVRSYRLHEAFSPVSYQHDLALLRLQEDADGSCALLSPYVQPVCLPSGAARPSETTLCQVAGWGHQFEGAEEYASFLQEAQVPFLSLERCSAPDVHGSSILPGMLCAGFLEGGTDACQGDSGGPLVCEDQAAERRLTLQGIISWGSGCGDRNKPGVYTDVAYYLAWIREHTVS
Nature of the assay: activated coagulation factor XII inhibitor potency, concentration-effect curve, cell-free (AID 716). Type of assay: functional.

A short description of assay [14]: NIH/3T3 cell viability loss – mouse embryonic fibroblasts, dry powder, set 2, cytotoxicity control, dose response (AID 493247). Type of assay: functional, cell-based. Conditions: Fibroblast.
The next assay deals with Trypanosoma cruzi. Put plainly: anti-trypanosomal activity in host cells – cell-based, plate reader, dry powder, set 3, dose response (AID 493197). Type of assay: functional.

DNA dC->dU-editing enzyme APOBEC-3A, sequence (P31941 whole entry): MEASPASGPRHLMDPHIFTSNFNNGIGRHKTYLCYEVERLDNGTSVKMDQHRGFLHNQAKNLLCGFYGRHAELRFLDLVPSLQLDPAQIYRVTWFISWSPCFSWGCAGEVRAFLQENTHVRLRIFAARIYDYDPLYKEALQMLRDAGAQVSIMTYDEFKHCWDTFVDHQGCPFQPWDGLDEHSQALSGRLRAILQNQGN
Glutathione S-transferase omega-1, sequence (P78417 whole entry): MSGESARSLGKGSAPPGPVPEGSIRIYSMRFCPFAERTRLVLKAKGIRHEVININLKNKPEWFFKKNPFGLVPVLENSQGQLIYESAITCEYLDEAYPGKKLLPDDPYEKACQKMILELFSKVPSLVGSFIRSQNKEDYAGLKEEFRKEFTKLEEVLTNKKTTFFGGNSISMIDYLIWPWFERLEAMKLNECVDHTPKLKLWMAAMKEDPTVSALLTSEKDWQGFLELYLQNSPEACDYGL
Paired box protein Pax-8, sequence (Q06710 whole entry): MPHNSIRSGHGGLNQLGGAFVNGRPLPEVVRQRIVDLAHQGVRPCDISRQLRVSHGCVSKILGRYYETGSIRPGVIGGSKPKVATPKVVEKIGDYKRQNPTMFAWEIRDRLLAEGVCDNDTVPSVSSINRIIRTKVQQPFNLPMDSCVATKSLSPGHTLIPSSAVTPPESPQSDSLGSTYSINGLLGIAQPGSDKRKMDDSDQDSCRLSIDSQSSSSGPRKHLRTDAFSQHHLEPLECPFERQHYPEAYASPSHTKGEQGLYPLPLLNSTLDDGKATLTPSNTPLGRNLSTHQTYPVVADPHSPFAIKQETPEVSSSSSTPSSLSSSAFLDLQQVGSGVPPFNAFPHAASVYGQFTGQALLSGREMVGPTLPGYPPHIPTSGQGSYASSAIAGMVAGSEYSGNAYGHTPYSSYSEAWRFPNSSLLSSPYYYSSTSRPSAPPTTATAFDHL
DNA dC->dU-editing enzyme APOBEC-3G, sequence (Q9HC16 whole entry): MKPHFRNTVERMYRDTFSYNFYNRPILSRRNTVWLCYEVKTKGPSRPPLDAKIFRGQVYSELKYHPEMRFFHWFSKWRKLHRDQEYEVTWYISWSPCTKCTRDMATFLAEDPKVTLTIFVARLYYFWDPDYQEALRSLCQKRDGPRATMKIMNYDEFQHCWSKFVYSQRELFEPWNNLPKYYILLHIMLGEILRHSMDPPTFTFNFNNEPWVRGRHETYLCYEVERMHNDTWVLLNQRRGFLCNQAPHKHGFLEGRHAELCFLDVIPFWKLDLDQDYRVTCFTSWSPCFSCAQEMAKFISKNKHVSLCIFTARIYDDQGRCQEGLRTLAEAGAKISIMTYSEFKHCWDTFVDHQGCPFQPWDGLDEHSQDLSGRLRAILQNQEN

In the case of `O=C(NC1CCCCC1)C(c1cccnc1)N(C(=O)CCl)c1ccc(F)cc1` (centres undefined), the EC50 in assay [1] was > 120 µM (not active); in [2] it was 10.1 µM (active); in the assay with BJ [3], 1.3 µM (inconclusive); with H4, > 120 µM (not active); in the assay with BJ [4] it was 5.32 µM (inconclusive); in the assay on BJ [5], 7.25 µM (active). Besides, the EC50 in assay [6] was 2.48 µM (active); in the assay with BJ [10], 0.535 µM (active); on Protein RecA, 0.816 µM (active). In addition, the AC50 in assay [7] is 1.54 µM (active); in assay [9] it was 5.76 µM (active); on Paired box protein Pax-8, 1.43 µM (active); in [11], 7.37 µM (active). Moreover, in [8], the IC50 was 0.054 µM (active).

`Cc1ccc(-n2c(-c3ccco3)n[nH]c2=S)cc1`: the figures for the IC50 in assay [12] and in assay [13] were > 100 µM (inactive) and 4.57 µM (active), respectively.

As for `COc1ccc2oc(C)c(C(=O)Cn3ccnc3)c2c1`, the IC50 on Coagulation factor XII is > 50 µM (inactive).

On to `O=C(CCC(=O)Nc1ccccc1)N/N=C/c1ccc([N+](=O)[O-])o1`, for which the AC50 is 5.35 µM (active) in assay [14] and 0.125 µM (active) with Trypanosoma cruzi.
